The source of these data is PubChem BioAssay (NCI).

Molecules are shown by their SMILES.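 Grown in 96-well plates, cells were treated for 48 hours with each compound at five concentrations. Insufficient inhibition: endpoint recorded as highest concentration tested. GI50: concentration for 50% inhibition of growth. At the TGI there is no net growth.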

Some test systems named below: HCT-116 colon; RPMI-8226 leukemia; MCF7 breast; SW-620 colon; SK-MEL-5 melanoma; T-47D breast; SR leukemia; HL-60(TB) leukemia; MDA-MB-435; KM12 colon.
What all share (assay): NCI anticancer screen, dose series, 48 h

Regarding `CCCN(Cc1ccc(F)cc1)c1ccc(CO)c(Cl)c1`, the GI50 in the assay on HCT-116 colon is 138 nM; with RPMI-8226 leukemia, 1910 nM; with MCF7 breast, 375 nM; in the assay with SW-620 colon, 1070 nM; with SK-MEL-5 melanoma, 6510 nM; in the assay on T-47D breast it was 119 nM. For the same compound, the GI50 is 13600 nM in the assay with SR leukemia, 3270 nM in the assay on HL-60(TB) leukemia, 14600 nM in the assay on MDA-MB-435 and 13000 nM with KM12 colon. Also, the TGI is 3860 nM in the assay with HCT-116 colon; 14000 nM with RPMI-8226 leukemia; 12900 nM in the assay with MCF7 breast; 15600 nM with SW-620 colon; 19800 nM with SK-MEL-5 melanoma; 733 nM in the assay on T-47D breast. In addition, the TGI was 35400 nM in the assay on SR leukemia, 19200 nM with HL-60(TB) leukemia, 29000 nM in the assay with MDA-MB-435 and 27300 nM in the assay on KM12 colon.
Regarding `CC1Oc2cc3c(-c4c(O)cc(O)c5c(O)c6c(cc45)OC(C)C(C)C6=O)c(O)cc(O)c3c(O)c2C(=O)C1C` (centres undefined), the TGI was 289 nM with HCT-116 colon; 469 nM with RPMI-8226 leukemia; 3750 nM in the assay with MCF7 breast; 1520 nM in the assay on SW-620 colon; 461 nM in the assay on SK-MEL-5 melanoma; 1410 nM in the assay with T-47D breast. Also, the TGI with SR leukemia is 429 nM; in the assay on HL-60(TB) leukemia, 650 nM; in the assay with MDA-MB-435 it was 1160 nM; with KM12 colon, 1510 nM.
As for `CCN(CC)CCOc1ccc(C(=C(C)c2ccc(Cl)cc2)c2ccc(OCCN(CC)CC)cc2)cc1`, the GI50 in the assay with HCT-116 colon is 591 nM; with RPMI-8226 leukemia, 668 nM; in the assay on MCF7 breast it was 445 nM; in the assay with SW-620 colon it was 556 nM; in the assay on SK-MEL-5 melanoma, 592 nM; in the assay on T-47D breast, 565 nM. In addition, the GI50 with SR leukemia is 484 nM; in the assay with HL-60(TB) leukemia, 639 nM; in the assay on MDA-MB-435, 558 nM; with KM12 colon, 666 nM. The TGI is 1160 nM with HCT-116 colon; 1490 nM in the assay with RPMI-8226 leukemia; 966 nM in the assay on MCF7 breast; 1100 nM in the assay with SW-620 colon; 1060 nM in the assay on SK-MEL-5 melanoma; 1250 nM in the assay with T-47D breast. The TGI in the assay with SR leukemia was determined as 1250 nM; with HL-60(TB) leukemia, 1340 nM; with MDA-MB-435, 1020 nM; in the assay with KM12 colon it was 1370 nM.
Regarding `CC(=O)OC1c2ccccc2CC2(OC(C)=O)c3ccccc3C12` (centres undefined), the TGI in the assay on HCT-116 colon, with RPMI-8226 leukemia, in the assay with MCF7 breast, in the assay with SW-620 colon, in the assay with T-47D breast and in the assay with SR leukemia was greater than 100000 nM each time. The TGI with MDA-MB-435 and in the assay on KM12 colon was greater than 100000 nM each time.
As for `CN(C)CCCNC(=O)c1cc(NC(=O)CCNS(=O)(=O)c2ccc3c(c2)C(=O)c2ccccc2C3=O)cn1C`, the GI50 with HCT-116 colon, in the assay on RPMI-8226 leukemia, in the assay on MCF7 breast, in the assay with SW-620 colon, in the assay on SK-MEL-5 melanoma and in the assay on T-47D breast was greater than 100000 nM each time. In addition, the GI50 in the assay on SR leukemia, in the assay on MDA-MB-435 and in the assay on KM12 colon was greater than 100000 nM each time. Also, the TGI with HCT-116 colon, in the assay on RPMI-8226 leukemia, in the assay on MCF7 breast, in the assay with SW-620 colon, in the assay with SK-MEL-5 melanoma and in the assay with T-47D breast was greater than 100000 nM in each case. Also, the TGI with SR leukemia, in the assay with MDA-MB-435 and in the assay with KM12 colon was greater than 100000 nM in each case.
On to `O=S(=O)(c1ccc(NC(=S)NCc2cccnc2)cc1)N1CCCCC1`, for which the GI50 in the assay with HCT-116 colon is 470 nM; in the assay on RPMI-8226 leukemia it was 2170 nM; with MCF7 breast it was 12700 nM; in the assay on SW-620 colon, 579 nM; in the assay with SK-MEL-5 melanoma it was 12100 nM; with T-47D breast, 7330 nM. Further, the GI50 with SR leukemia is 36800 nM; with MDA-MB-435, 3040 nM. Moreover, the TGI with HCT-116 colon is greater than 100000 nM; with RPMI-8226 leukemia, greater than 100000 nM; with MCF7 breast, greater than 100000 nM; in the assay on SW-620 colon it was greater than 100000 nM; in the assay on SK-MEL-5 melanoma, 45800 nM; with T-47D breast, greater than 100000 nM. Further, the TGI with SR leukemia and with MDA-MB-435 was greater than 100000 nM throughout.
On to `CCc1c(C)[nH]c(/C=C2\N=C(c3ccc[nH]3)C=C2OC)c1C`, for which the GI50 is less than 46.2 nM in the assay with HCT-116 colon; 23.9 nM in the assay on RPMI-8226 leukemia; 400 nM with MCF7 breast; 159 nM in the assay with SK-MEL-5 melanoma; 545 nM in the assay with T-47D breast; 127 nM in the assay with HL-60(TB) leukemia. Also, the GI50 in the assay on MDA-MB-435 is 73.3 nM; in the assay on KM12 colon, 94.4 nM. The TGI was 1050 nM in the assay on RPMI-8226 leukemia; 6930 nM in the assay with MCF7 breast; 6560 nM with SW-620 colon; 545 nM in the assay with SK-MEL-5 melanoma; 3220 nM with T-47D breast; 2100 nM in the assay with HL-60(TB) leukemia. The figures for the TGI in the assay with MDA-MB-435 and in the assay with KM12 colon were 1420 nM and 5260 nM, respectively.
Take `CC1(C)CCC2(C(=O)OC3OC(CO)C(O)C(O)C3O)CC[C@]3(C)C(=CCC4C5(C)CC[C@H](OC6OC(C(=O)O)C(O)C(O)C6O)C(C)(C)C5CCC43C)C2C1` (some centres undefined): the GI50 in the assay on HCT-116 colon is 1120 nM; in the assay with RPMI-8226 leukemia it was 776 nM; in the assay on MCF7 breast, 1600 nM; with SW-620 colon, 1930 nM; with SK-MEL-5 melanoma, 929 nM; in the assay with T-47D breast, 1750 nM. Moreover, the GI50 in the assay on HL-60(TB) leukemia was 1220 nM; with MDA-MB-435 it was 2520 nM; in the assay on KM12 colon, 2080 nM. Also, the TGI is 2380 nM in the assay on HCT-116 colon; 10200 nM in the assay on RPMI-8226 leukemia; greater than 50000 nM with MCF7 breast; 8870 nM in the assay on SW-620 colon; 1780 nM with SK-MEL-5 melanoma; 5980 nM in the assay with T-47D breast. The TGI with HL-60(TB) leukemia is 3450 nM; in the assay with MDA-MB-435 it was greater than 50000 nM; in the assay on KM12 colon, 9470 nM.
As to `COc1cc2nc(Cl)nc(Nc3cccc(C(=O)/C=C/c4ccccc4)c3)c2cc1OC`, the GI50 was 1620 nM in the assay on HCT-116 colon; 622 nM with RPMI-8226 leukemia; 1810 nM in the assay on MCF7 breast; 2790 nM in the assay with SW-620 colon; greater than 22800 nM with SK-MEL-5 melanoma; greater than 30300 nM in the assay with T-47D breast. Also, the GI50 in the assay on HL-60(TB) leukemia was 3610 nM; in the assay on MDA-MB-435, 3400 nM; in the assay on KM12 colon, 2450 nM. The TGI is 5160 nM with HCT-116 colon; 3480 nM in the assay on RPMI-8226 leukemia; greater than 100000 nM with MCF7 breast; greater than 100000 nM in the assay on SW-620 colon; greater than 100000 nM in the assay with SK-MEL-5 melanoma; greater than 100000 nM with T-47D breast. The TGI with HL-60(TB) leukemia was greater than 100000 nM; with MDA-MB-435 it was 28900 nM; in the assay with KM12 colon it was greater than 100000 nM.
